Data reported in ChEMBL document CHEMBL4145655, “Confirmation of the Revised Structure of Samoquasine A and a Proposed Structural Revision of Cherimoline” (2018).
Activity calls are given as the source filed them. The rule behind the calls is not given here.

Legend:
[1] = system: Panel NCI-60 (60 carcinoma cell lines); test: Cytotoxicity against human NCI60 cells at 10 uM after 48 hrs by sulforhodamine B assay; format: functional, cell-based
HONE1 cell line = test: Growth inhibition of human HONE1 cells at 50 ug/ml relative to control; format: functional; conditions: read-out: GI
NUGC = test: Growth inhibition of human NUGC cells at 50 ug/ml relative to control; format: functional; conditions: read-out: GI

Row | SMILES | Activity [1] | inhibition of growth at 50 µg/mL (HONE1 cell line) [%] | inhibition of growth at 50 µg/mL (NUGC) [%]
1 | O=c1occc2c1cnc1ccccc12 | inactive | – | –
2 | O=c1[nH]ccc2c1cnc1ccccc12 | inactive | 62 | 63
3 | Cn1ccc2c(cnc3ccccc32)c1=O | inactive | – | –
